US20070185084A1, “COMPOSITIONS OF AN ANTICONVULSANT AND METHODS OF USING THE SAME FOR REVERSING WEIGHT GAIN” (Orexigen Therapeutics, Inc., priority 2006, published 2007)
Entries after “also recorded” stand apart in the source; their conditions may differ. Where two headings read alike, the source gives them in different places.

Experiments:
[1] = Example 11: zonisamide started one week after olanzapine pump implantation in rodent model of olanzapine-induced weight gain; format: in vivo, rats
Method: Female Sprague-Dawley rats, weighing about 235 grams at the start of the experiment were used. They were trained to sham injections, using the zonisamide vehicle for 2 weeks before the study commenced. Under isoflurane anesthesia, Alzet osmotic minipumps (2 ml2) were implanted subcutaneously, between the shoulder blades. The rats were subsequently returned to their home cages after recovery. The minipumps delivered 5 μL per hour for 14 days. Olanzapine was dissolved in 1.5% lactic acid in dH2O. Zonisamide was dissolved in 10% DMSO, 13.4% EtOH, 20.1% PPG, and […]. Olanzapine dose was 1.75 mg/day via the minipump. The animals were housed individually and supplied with standard laboratory chow. Food consumed and animal weights were recorded every days. There were 5 animals in the control (vehicle) group, 5 animals in the zonisamide only group, 4 animals in the olanzapine only group, and 6 animals in the olanzapine+zonisamide group.
Rats were allowed to recover after pump implantation, and then received twice daily injections of zonisamide 26 mg/kg. Their food intake and body weight were calculated daily for 15 days.
The protocol used was the same as described in Example 12, with the exception that the treatment with zonisamide began one week after implantation of the olanzapine osmotic pumps, and food intake and body weight were calculated daily for 10 days.

[2] = Example 10: co-treatment with zonisamide in rodent model of olanzapine-induced weight gain (body weight, food intake); format: in vivo, Sprague-Dawley rats
Method: Female Sprague-Dawley rats, weighing about 235 grams at the start of the experiment were used. They were trained to sham injections, using the zonisamide vehicle for 2 weeks before the study commenced. Under isoflurane anesthesia, Alzet osmotic minipumps (2 ml2) were implanted subcutaneously, between the shoulder blades. The rats were subsequently returned to their home cages after recovery. The minipumps delivered 5 μL per hour for 14 days. […] The animals were housed individually and supplied with standard laboratory chow. Food consumed and animal weights were recorded every days. […] Rats were allowed to recover after pump implantation, and then received twice daily injections of zonisamide 26 mg/kg.

[3] = Example 13 case study: zonisamide in patient with weight gain on paroxetine and risperidone; format: in vivo, human
Method: They were therefore started on zonisamide 100 mg, increased to 200 mg. […] The dose was then increased to 300 mg and then to 600 mg.

[4] = Example 14 case study: bupropion and zonisamide added to olanzapine and valproate; format: in vivo, human
Method: At this point, zonisamide was added to their medication regimen at 100 mg/day and the dose was increased to 200 mg/day after two weeks.

[5] = cited from earlier work
[6] = tested on: Proopiomelanocortin (POMC) neurons; experiment: Electrophysiology: action current frequency of POMC neurons in brain slices, loose cell attached patch; format: cell-based, POMC-EGFP mice; details: for frequency of action currents (activity) of POMC neurons: zonisamide 10 μM, FIG. 1
Method: The electrophysiological activity of Proopiomelanocortin (POMC) neurons in brain slices from POMC-EGFP mice was recorded. The POMC neurons in these mice are identified by the expression of green fluorescent protein (EGFP) in these, and only these, cells. The frequency of action potentials in these neurons were recorded using standard electrophysiological techniques. In particular, loose cell attached patch configuration is used to determine action current frequency, whilst minimally disturbing the cells.
The basal activity was recorded, and then olanzapine (100 nM) was added to the tissue bath to determine the effect of olanzapine on the activity of POMC neurons. […] Then the effect of zonisamide on the reduction in activity caused by […] was tested by adding olanzapine plus zonisamide (10 μM) to the bath.

[7] = Example 12 case study: zonisamide added to clonazepam, fluoxetine and lamotrogine, bipolar patient; format: in vivo, human; details: zonisamide 100 mg qD added to clonazepam, fluoxetine, lamotrogine; person
Method: A person having biopolar disorder, Type I, had been treated for just over year by their psychiatrist using clonazepam 1 mg qHS, fluoxetine 20 mg qd, and lamotrogine 300 mg qD. One particular complaint was that they had “constant thoughts of eating”. Their psychiatrist started them on zonisamide 100 mg qD. […] The dose was continued and despite multiple stressors at home, they continued to do well on the treatment regimen.

[8] = Day 7.00, rats, zonisamide begun one week after olanzapine pump implantation
[9] = Day 1.00, rats, olanzapine 1.75 mg/day minipump, zonisamide 26 mg/kg twice daily
[10] = zonisamide added to olanzapine, valproate, bupropion

## Cc1cc2c(s1)Nc1ccccc1N=C2N1CCN(C)CC1 [Olanzapine, olanzapine]
[1]; [8]
  Cumulative Change in Body Weiglt Post-Pump Implant, Mean: −0.46
  Cumulative Change in Food Intake Post-Pump Implant, Mean: 13.39
[1]; Day 8.00
  Cumulative Change in Body Weiglt Post-Pump Implant, Mean: −11.55
  Cumulative Change in Food Intake Post-Pump Implant, Mean: 18.36
[1]; Day 9.00
  Cumulative Change in Body Weiglt Post-Pump Implant, Mean: 4.28
  Cumulative Change in Food Intake Post-Pump Implant, Mean: 57.46
[1]; Day 10.00
  Cumulative Change in Body Weiglt Post-Pump Implant, Mean: 11.88
  Cumulative Change in Food Intake Post-Pump Implant, Mean: 124.58
[1]; Day 11.00
  Cumulative Change in Body Weiglt Post-Pump Implant, Mean: 13.48
  Cumulative Change in Food Intake Post-Pump Implant, Mean: 145.5
[1]; Day 12.00
  Cumulative Change in Body Weiglt Post-Pump Implant, Mean: 11.8
  Cumulative Change in Food Intake Post-Pump Implant, Mean: 163.6
[1]; Day 13.00
  Cumulative Change in Body Weiglt Post-Pump Implant, Mean: 15.55
  Cumulative Change in Food Intake Post-Pump Implant, Mean: 181.05
[1]; Day 14.00
  Cumulative Change in Body Weiglt Post-Pump Implant, Mean: 20.4
  Cumulative Change in Food Intake Post-Pump Implant, Mean: 200.9
[1]; Day 15.00
  Cumulative Change in Body Weiglt Post-Pump Implant, Mean: 17.98
  Cumulative Change in Food Intake Post-Pump Implant, Mean: 218.2
[1]; Day 16.00
  Cumulative Change in Body Weiglt Post-Pump Implant, Mean: 21.22
  Cumulative Change in Food Intake Post-Pump Implant, Mean: 236.95
[2]; [9]
  Change in Food Intake Post Pump Implant, Mean: 16.56
  Cumulative Change in Body Weight, Mean: 7.44
[2]; Day 2.00
  Change in Food Intake Post Pump Implant, Mean: 39.82
[2]; Day 4.00
  Cumulative Change in Body Weight, Mean: 21.04
[2]; Day 5.00
  Change in Food Intake Post Pump Implant, Mean: 62.30
  Cumulative Change in Body Weight, Mean: 19.22
[2]; Day 6.00
  Change in Food Intake Post Pump Implant, Mean: 86.14
  Cumulative Change in Body Weight, Mean: 20.56
[2]; Day 7.00
  Change in Food Intake Post Pump Implant, Mean: 105.74
  Cumulative Change in Body Weight, Mean: 30.88
[2]; Day 8.00
  Change in Food Intake Post Pump Implant, Mean: 119.30
  Cumulative Change in Body Weight, Mean: 27.56
[2]; Day 9.00
  Change in Food Intake Post Pump Implant, Mean: 144.98
  Cumulative Change in Body Weight, Mean: 32.94
[2]; Day 10.00
  Change in Food Intake Post Pump Implant, Mean: 161.16
  Cumulative Change in Body Weight, Mean: 34.98
[2]; Day 11.00
  Change in Food Intake Post Pump Implant, Mean: 180.96
  Cumulative Change in Body Weight, Mean: 33.40
[2]; Day 12.00
  Change in Food Intake Post Pump Implant, Mean: 201.42
  Cumulative Change in Body Weight, Mean: 40.76
[2]; Day 13.00
  Change in Food Intake Post Pump Implant, Mean: 224.38
  Cumulative Change in Body Weight, Mean: 38.84
[2]; Day 14.00
  Change in Food Intake Post Pump Implant, Mean: 241.48
  Cumulative Change in Body Weight, Mean: 43.28
[2]; Day 15.00
  Cumulative Change in Body Weight, Mean: 41.64

## CC(NC(C)(C)C)C(=O)c1cccc(Cl)c1 (stereo not shown) [bupropion]
[3]; trial of bupropion alone
  weight loss: did not cause significant weight loss
[4]; bupropion 150 mg/day added to olanzapine and valproate, after 6 months
  weight lost: 23.6 lbs
[4]; bupropion dose raised to 300 mg/day
  adverse effect reported: feeling hyperactive
[4]; while continuing bupropion, over the next 10 months
  weight regained: 10.6 lbs

## NS(=O)(=O)Cc1noc2ccccc12 [Zonisamide, zonisamide]
[1]; [8]
  Cumulative Change in Body Weiglt Post-Pump Implant, Mean: −1.73
  Cumulative Change in Food Intake Post-Pump Implant, Mean: 13.15
[1]; Day 8.00
  Cumulative Change in Body Weiglt Post-Pump Implant, Mean: −11.38
  Cumulative Change in Food Intake Post-Pump Implant, Mean: 18.62
[1]; Day 9.00
  Cumulative Change in Body Weiglt Post-Pump Implant, Mean: −1.28
  Cumulative Change in Food Intake Post-Pump Implant, Mean: 46.87
[1]; Day 10.00
  Cumulative Change in Body Weiglt Post-Pump Implant, Mean: 5.8
  Cumulative Change in Food Intake Post-Pump Implant, Mean: 101.08
[1]; Day 11.00
  Cumulative Change in Body Weiglt Post-Pump Implant, Mean: 6.37
  Cumulative Change in Food Intake Post-Pump Implant, Mean: 116.93
[1]; Day 12.00
  Cumulative Change in Body Weiglt Post-Pump Implant, Mean: 0.86
  Cumulative Change in Food Intake Post-Pump Implant, Mean: 126.64
[1]; Day 13.00
  Cumulative Change in Body Weiglt Post-Pump Implant, Mean: −4.79
  Cumulative Change in Food Intake Post-Pump Implant, Mean: 133.95
[1]; Day 14.00
  Cumulative Change in Body Weiglt Post-Pump Implant, Mean: −11.79
  Cumulative Change in Food Intake Post-Pump Implant, Mean: 141.09
[1]; Day 15.00
  Cumulative Change in Body Weiglt Post-Pump Implant, Mean: −10.3
  Cumulative Change in Food Intake Post-Pump Implant, Mean: 153.61
[1]; Day 16.00
  Cumulative Change in Body Weiglt Post-Pump Implant, Mean: −9.37
  Cumulative Change in Food Intake Post-Pump Implant, Mean: 167.93
[1]; zonisamide one week after implantation of olanzapine pumps, rats
  effect on olanzapine-induced weight gain: decrease the weight gain associated with olanzapine; also recorded: reversed olanzapine-induced weight gain
[2]; [9]
  Change in Food Intake Post Pump Implant, Mean: 12.48
  Cumulative Change in Body Weight, Mean: 9.74
[2]; Day 2.00
  Change in Food Intake Post Pump Implant, Mean: 30.10
[2]; Day 4.00
  Cumulative Change in Body Weight, Mean: 20.24
[2]; Day 5.00
  Change in Food Intake Post Pump Implant, Mean: 46.02
  Cumulative Change in Body Weight, Mean: 17.60
[2]; Day 6.00
  Change in Food Intake Post Pump Implant, Mean: 58.24
  Cumulative Change in Body Weight, Mean: 19.34
[2]; Day 7.00
  Change in Food Intake Post Pump Implant, Mean: 72.10
  Cumulative Change in Body Weight, Mean: 20.18
[2]; Day 8.00
  Change in Food Intake Post Pump Implant, Mean: 86.88
  Cumulative Change in Body Weight, Mean: 17.32
[2]; Day 9.00
  Change in Food Intake Post Pump Implant, Mean: 104.86
  Cumulative Change in Body Weight, Mean: 13.66
[2]; Day 10.00
  Change in Food Intake Post Pump Implant, Mean: 123.66
  Cumulative Change in Body Weight, Mean: 14.62
[2]; Day 11.00
  Change in Food Intake Post Pump Implant, Mean: 140.40
  Cumulative Change in Body Weight, Mean: 16.46
[2]; Day 12.00
  Change in Food Intake Post Pump Implant, Mean: 160.36
  Cumulative Change in Body Weight, Mean: 21.08
[2]; Day 13.00
  Change in Food Intake Post Pump Implant, Mean: 177.70
  Cumulative Change in Body Weight, Mean: 24.26
[2]; Day 14.00
  Change in Food Intake Post Pump Implant, Mean: 186.25
  Cumulative Change in Body Weight, Mean: 27.52
[2]; Day 15.00
  Cumulative Change in Body Weight, Mean: 25.70
[2]; zonisamide added to concomitant olanzapine treatment, rats
  effect on the weight gain associated with olanzapine: decrease the weight gain associated with olanzapine
[3]; on zonisamide
  psychiatric symptoms: improved
[3]; zonisamide 100 mg, increased to 200 mg, in 3 weeks
  weight lost: 12 pounds
[3]; zonisamide increased to 300 mg and then 600 mg, in 5 months
  weight: returned to baseline
[5]; patients presenting with primary obesity
  weight loss: significant weight loss
[5]; versus placebo treatment
  tolerability: well tolerated
[4]; zonisamide 100 mg/day, 200 mg/day after two weeks, added to regimen, over the next 4 months
  weight lost: 15 lbs
[4]; [10]
  adverse effects reported: no adverse effects
  bipolar disorder symptoms: remained free of bipolar disorder symptoms
[6]; olanzapine plus zonisamide (10 μM) in the bath, FIG. 3
  activity of POMC neurons inhibited by olanzapine: reversed the inhibition of POMC neurons
[6]
  frequency of action currents (activity) of POMC neurons: reversibly increased the activity of POMC neurons
[6]; listed as zonisamide
  frequency of action currents (activity) of POMC neurons: increases the activity of POMC neurons
[7]
  craving for food: significantly reduced their craving for food
  weight gain: prevented weight gain
